Data as given in paper PMC2263054, “Functional evolution of the vitamin D and pregnane X receptors” (BMC Evolutionary Biology, 2007).

Experiments:
[1] = test system: MDR1 (tentatively classified as ABCB5 in zebrafish); assay: zebrafish in vivo liver transcription, semi-quantitative RT-PCR: MDR1
Procedure: (§1) Adult zebrafish were purchased from a commercial fish supplier and acclimatized for at least two-weeks in 20 L tanks with flow-through freshwater at 22°C. A single dose of 15 mg/kg of 5α-cyprinol, 5β-cyprinol 27-sulfate, 5α-scymnol or 5β-scymnol-27 sulfate, dissolved in saline, was injected intraperitoneally. A control group was injected with saline. After 48 hr, the animals were decapitated and livers of three fish (n = 5 each group) were removed, pooled and weighed, totalizing 15 fish per group. Fish were not fed throughout the experimental period. […].
(§2) To study the transcription of CYP3C1, ABCB5, PXR, GAPDH and β-actin genes in zebrafish, initial fragments of these genes were identified (Genbank: AW202769, Genbank: BQ284593, Genbank: AAM22215, Genbank: BC083506, Genbank: AF057040, respectively). The PCR primers for CYP3C1 were designed using MacVector Software and primers for MDR1 were designed using Primer 3 Software (Whitehead Institute for Biomedical Research; [75]). Primer pairs for amplifying CYP3C1 fragment were 5'-[…]-3' (sense) and 5'-[…]-3' (antisense) and for amplifying ABCB5 were 5'-[…]-3' (sense) and 5'-[…]-3' (antisense). The PCR primers for PXR were 5'-[…]-3' (sense) and 5'-[…]-3' (antisense), for amplifying GAPDH were 5'-[…]-3' (sense) and 5' […] 3' (antisense) and for β-actin were 5'-[…]-3' (sense) and 5'-[…]-3' (antisense). RNA was isolated using Trizol (Invitrogen) according to manufacturer's instructions. Purity and concentration of RNA of each sample were verified at 260 nm. The RNA integrity was checked by non-denaturing gel electrophoresis using 1 μg of total RNA in each sample.
(§3) Two micrograms of total RNA were reversed transcribed using Ominiscript RT Kit (Qiagen, Valencia, CA, USA). cDNA concentration was checked at 260 nm, and the amount adjusted to 1 μg to perform semi-quantitative RT-PCR. The expected size of the PXR, Cyp3C1, abcb5, GAPDH and β-actin fragments were 577, 477, 218, 234 and 550 bp, respectively. Biotools DNA polymerase (Biotools B&M Labs, S.A., Madrid, Spain) kit was used for the PCR reaction using a thermocycler Personal Mastercycler (Eppendörf) with the following PCR program: 5 cycles of 94°C for 5 s, 72°C for 35 s; 5 cycles of 94°C for 5 s, 70°C for 10 s, 72°C for 35 s; and 23, 24, 35, 15 and 24 cycles (PXR, Cyp3C1, abcb5, GAPDH and β-actin, respectively) of 94°C for 5 s, 61, 54, 48, 49 and 61°C for 10 s (PXR, Cyp3C1, abcb5, GAPDH and β-actin, respectively), and 72°C for 35 s. The PXR, CYP3C1, ABCB5 and GAPDH transcript levels were quantified using Gel-Quant™ (Multiplexed Biotechologies) and β-actin was used to normalize the data. The Shapiro-Wilk W test was used to evaluate normality. When data were parametric the analysis was performed using Student t test; otherwise Mann Whitney U test was applied. […]

β-actin = assay: zebrafish in vivo liver transcription, semi-quantitative RT-PCR: β-actin
Procedure: as §1, §2, §3

Human VDR = biological target: T1, Human VDR (Homo sapiens, UniProt P11473); assay: luciferase reporter transactivation assay in HepG2-NTCP cells, full-length hVDR with CYP3A4-PXRE-Luc; conditions: HepG2-NTCP cells, luciferase reporter; unit not given; also cells saying No effect
T1 sequence (P11473 1-427): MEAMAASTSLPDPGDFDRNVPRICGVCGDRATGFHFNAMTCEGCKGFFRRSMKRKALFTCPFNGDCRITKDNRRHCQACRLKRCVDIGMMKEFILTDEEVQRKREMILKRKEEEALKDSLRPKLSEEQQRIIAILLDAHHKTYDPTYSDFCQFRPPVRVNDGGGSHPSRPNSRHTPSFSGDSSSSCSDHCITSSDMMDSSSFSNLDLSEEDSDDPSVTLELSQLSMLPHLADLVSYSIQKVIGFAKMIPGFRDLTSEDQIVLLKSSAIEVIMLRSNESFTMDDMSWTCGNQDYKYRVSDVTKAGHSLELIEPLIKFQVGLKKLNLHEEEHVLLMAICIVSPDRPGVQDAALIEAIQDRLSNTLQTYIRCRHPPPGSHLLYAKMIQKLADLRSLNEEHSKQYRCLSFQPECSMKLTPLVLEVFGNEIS

Zebrafish VDR = biological target: T2, Zebrafish VDR (Danio rerio, UniProt Q9PTN2); assay: luciferase reporter transactivation assay in HepG2-NTCP cells, GAL4/zfVDR LBD chimera with tk-UAS-Luc; format: cell-based; conditions: HepG2-NTCP cells, luciferase reporter; unit not given; also cells saying No effect
T2 sequence (Q9PTN2 121-453): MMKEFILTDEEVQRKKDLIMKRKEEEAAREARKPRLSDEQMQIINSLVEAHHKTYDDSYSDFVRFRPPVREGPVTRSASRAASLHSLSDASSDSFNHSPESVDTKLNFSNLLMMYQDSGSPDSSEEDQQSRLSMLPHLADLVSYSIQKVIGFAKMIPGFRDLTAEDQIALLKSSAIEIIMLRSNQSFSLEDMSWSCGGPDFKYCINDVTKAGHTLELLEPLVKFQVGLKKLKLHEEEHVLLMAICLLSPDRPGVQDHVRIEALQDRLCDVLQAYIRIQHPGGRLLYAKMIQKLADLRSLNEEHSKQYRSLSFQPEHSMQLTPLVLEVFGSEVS

Xenopus laevis VDR = biological target: T3, Xenopus laevis VDR (Xenopus laevis, UniProt O13124); assay: luciferase reporter transactivation assay in HepG2-NTCP cells, GAL4/xlVDR LBD chimera with tk-UAS-Luc; format: cell-based; conditions: HepG2-NTCP cells, luciferase reporter; unit not given; also cells saying No effect
T3 sequence (O13124 90-422): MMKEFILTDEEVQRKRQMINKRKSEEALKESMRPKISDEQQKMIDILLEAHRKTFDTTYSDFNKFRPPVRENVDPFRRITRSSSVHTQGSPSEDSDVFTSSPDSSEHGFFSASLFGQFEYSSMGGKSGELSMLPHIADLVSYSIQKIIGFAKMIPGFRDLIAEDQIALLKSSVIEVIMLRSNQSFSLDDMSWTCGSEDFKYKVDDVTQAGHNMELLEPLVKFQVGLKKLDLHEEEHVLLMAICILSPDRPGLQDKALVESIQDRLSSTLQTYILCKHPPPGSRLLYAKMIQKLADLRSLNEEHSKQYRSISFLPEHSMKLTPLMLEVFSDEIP

[2] = zebrafish, 15 mg/kg intraperitoneally, single dose, 48 hr

SMILES	liver transcription of MDR1 (ABCB5) [1, 2]	liver transcription of β-actin (β-actin; [2]) [arbitrary units]	Human VDR EC50 ± SD (Human VDR)	Zebrafish VDR EC50 ± SD (Zebrafish VDR)	Xenopus VDR EC50 ± SD (Xenopus laevis VDR)	liver transcription of MDR1 (ABCB5) ([1]; ip, 15 mg/kg, 48 h)	liver transcription of β-actin (β-actin; ip, 15 mg/kg, 48 h) [arbitrary units]
C[C@H](CCCC(CO)COS(=O)(=O)O)[C@H]1CC[C@H]2[C@@H]3[C@H](O)C[C@H]4C[C@H](O)CC[C@]4(C)[C@H]3C[C@H](O)[C@]12C (stereo partly drawn) [5α-Cyprinol 27-sulfate]	2.29 ± 0.75 arbitrary units normalized to β-actin	38.2 ± 20.7	No effect	No effect	No effect	–	–
C[C@H](CCCC(CO)CO)[C@H]1CC[C@H]2[C@@H]3[C@H](O)C[C@H]4C[C@H](O)CC[C@]4(C)[C@H]3C[C@H](O)[C@]12C [5α-Cyprinol, 5α-cholestan-3α,7α,12α,26,27-pentol]	–	–	No effect	No effect	No effect	2.00 ± 1.00 arbitrary units normalized to β-actin	44.7 ± 19.6
